In patent US7781423B2, “Compounds to promote regeneration of bone marrow” (priority 2007, dated 2010):

Legend:
[1] = system: lethally irradiated mice that received bone marrow transplantation; assay: Blood profile after bone marrow transplantation following lethal irradiation; assay type: in vivo, C57B1 mice; details: for Platelets / RBC / WBC: CCompound1 4.5 mg per kg i.p. daily, day -3 to day +3
Description: Twelve week old female C57B1 mice were used for the experiments. Each drug was administered intraperitoneally once a day for 5 consecutive days. In the second, third, fourth and fifth groups, mice were administered 120 mg/kg of cyclophosphamide (CP). In a third group, mice were also administered 4.5 mg/kg of CCompound1. In a fourth group, mice were also administered 4.5 mg/kg of CCompound3. In a fifth group, mice were also administered 2.0 mg/kg of CCompound26. In the first group, mice received no treatment. Each group included 5 animals. After 3 hours of the last treatments (on day 5), blood samples were collected from the ocular venous plexus of ether-anesthetized mice by retro-orbital venipuncture in heparanized tubes. Complete cell counts (RBC, red blood cell; WBC, white blood cell; PTL, platelet) were determined with a Sysmex F-800 hematology analyzer (To a Medical Electronics Co. LTD, Kobe, Japan). All data shown in Table 2 are the average of 5 independent determinations.
In this experiment the goal was to determine if CCompound1 can enhance expansion of transplanted bone marrow cells infused after applying a lethal dose of whole body irradiation (which reduces the number of bone marrow cells by more than 90%). C57B1 female mice (10-14 weeks old) were subjected to 900 cGy whole body irradiation from a ^137Cesium source which was followed within 6 hours by infusion of one million donor nucleated bone marrow cells by tail vein injection. Starting 3 days before irradiation, animals received daily 4.5 mg per kg of CCompound1 via intraperitoneal injection; this treatment also was provided on day 0 and once daily for the subsequent 3 days after irradiation. In another group, mice were injected only with physiological saline.
Bone marrow cells were collected on day 0 from non-irradiated animals as well as on days 6, 14, 28 and 42 after irradiation and bone marrow transplantation. Nucleated bone marrow cells were quantified and CFU-GM assay was performed as described in Example 3 while blood profiling was performed as described in Example 1. For each group, on the indicated days bone marrow and blood samples were collected from 3 animals. Each value presented in Table 5 and Table 6 represents the mean±st. dev. of 3 samples (derived from 3 animals).

[2] = system: human bone marrow-derived mesenchymal stem cells; assay: Survival of mesenchymal stem cells in the absence of serum (viable cell number); assay type: cell-based; details: serum-free medium
Description: Bone marrow aspirates were taken from normal adult donors after an informed consent was signed. Bone marrow mesenchymal stem cells were prepared by a widely used technique as described earlier by others. Pittenger, M. F., Mackay, A. M., Beck, S. C., Jaiswal, R. K., Douglas, R., Mosca, J. D., Moorman, M. A., Simonetti, D. W., Craig, S. and Marshak, D. R., “Multilineage potential of adult human mesenchymal stem cells,” Science, 284, 143-147 (1999). […] When cells grew to about 80% confluence, they were suspended and harvested by incubating with a ready-made solution containing 0.25% trypsin and 1 mM EDTA (Sigma-Aldrich, St. Louis, Mo.) for 5 minutes at 37° C.; this cell suspension is designated as passage 1. […]
The total numbers of nucleated and viable cells were determined with a hemocytometer, using Turck's solution and trypan blue stain, respectively. […]
In the experiments reported in Table 7 and Table 8, human bone marrow-derived mesenchymal stem cells were split at 1:3 and then incubated for 24 hours in 10% fetal calf serum-containing medium to about 30-35% confluence. […] The data are expressed as mean values±std. dev. of 3 determinations.

[3] = after bone marrow transplantation
[4] = day 6 after 900 cGy irradiation and bone marrow transplantation
[5] = day 14 after 900 cGy irradiation and bone marrow transplantation
[6] = day 28 after 900 cGy irradiation and bone marrow transplantation
[7] = day 42 after 900 cGy irradiation and bone marrow transplantation

For `Cc1c(OCC(O)C[N+](C)(C)C)cc2c(=O)c3ccccc3sc2c1C.[Cl-]` (stereo not drawn) [CCcompound1, [3-(3,4-Dimethyl-9-oxo-9H-thioxanthen-2-yloxy)-2-hydroxypropyl]trimethyl-ammonium chloride], which solubility in water (Solubility in water) is on record?
The solubility in water was “soluble in water”.

What about the “time to recover platelet count similar to about 100,000 per 1 μl from transplanted bone marrow stem cells” value [1, 3] of the same compound?
Its value is “less than 6 days”.

What about the “time to recover white blood cell count similar to 2,500 per 1 μl from transplanted bone marrow stem cells” value [1, 3] of the same compound?
Its value is 9 to 11 days.

And the “time to about 50% recovery of white blood cells” value ([1]; after lethal irradiation and bone marrow transplantation)?
The value was “about 14 days”.

And the Platelets [1, 4]?
The Platelets was 243 ± 19 ×10^3/mm^3.

What about the RBC [1, 4] of the same compound?
The RBC was 4.8 ± 1.2 ×10^6/mm^3.

What about the WBC [1, 4] of the same compound?
Its WBC is 1.6 ± 0.3 ×10^3/mm^3.

What about the Platelets [1, 5] of the same compound?
The Platelets was 438 ± 112 ×10^3/mm^3.

What about the RBC [1, 5] of the same compound?
Its RBC is 9.1 ± 1.1 ×10^6/mm^3.

What about the WBC [1, 5] of the same compound?
The WBC was 3.3 ± 0.4 ×10^3/mm^3.

And the Platelets [1, 6]?
Its Platelets is 716 ± 138 ×10^3/mm^3.

What about the RBC [1, 6] of the same compound?
Its RBC is 10.9 ± 1.3 ×10^6/mm^3.

What about the WBC [1, 6] of the same compound?
The WBC was 5.2 ± 0.8 ×10^3/mm^3.

And the Platelets [1, 7]?
Its Platelets is 776 ± 112 ×10^3/mm^3.

And the RBC [1, 7]?
The RBC was 11.0 ± 0.7 ×10^6/mm^3.

What about the WBC [1, 7] of the same compound?
The WBC was 6.6 ± 0.4 ×10^3/mm^3.

And the “effect on cell numbers (survival)” value ([2]; 10 μM)?
Its value is “did not reach statistical significance”.

What about the “effect on cell numbers (survival)” value ([2]; 50 μM) of the same compound?
Its value is “no effect”.
